{"source": "patent US20060128792A1", "about": "“Deguelin as a chemopreventive agent for lung cancer” (priority 2002, published 2006)", "assay_in_all_cases": "MTT assay, growth inhibition by deguelin or deguelin derivatives", "assay_type_in_all_cases": "cell-based", "details_in_all_cases": "3 days", "key": {"H322": {"test_system": "H322"}, "H1299": {"test_system": "H1299"}, "A549": {"test_system": "A549"}, "H596": {"test_system": "H596"}, "H460": {"test_system": "H460"}, "H358": {"test_system": "H358"}}, "note": "Several values for one entry are separate records, joined by “and”; a condition that tells them apart may be missing. Equal values may be shown once.", "data": [{"smiles": "COc1cc2c(cc1OC)-c1c(oc3c4c(ccc3c1=O)OC(C)(C)C=C4)CO2", "note": "[7a,13a-dehydrodeguelin]", "values": [{"measurement": "MTT assay reading, Average", "setting": "H322; H322, 0.01 μM", "value": 1.0041}, {"measurement": "MTT assay reading, individual replicate", "setting": "H322; H322, 0.01 μM", "value": "0.921 and 1.08 and 1.05 and 1.022 and 0.888 and 0.926 and 1.142"}, {"measurement": "MTT assay reading, Average", "setting": "H322; H322, 0.1 μM", "value": 1.0019}, {"measurement": "MTT assay reading, individual replicate", "setting": "H322; H322, 0.1 μM", "value": "1.04 and 1.033 and 0.923 and 1.031 and 1.09 and 0.883 and 1.013"}, {"measurement": "MTT assay reading, Average", "setting": "H322; H322, 0.5 μM", "value": 0.866}, {"measurement": "MTT assay reading, individual replicate", "setting": "H322; H322, 0.5 μM", "value": "0.837 and 0.8 and 0.975 and 0.926 and 0.806 and 0.811 and 0.907"}, {"measurement": "MTT assay reading, Average", "setting": "H322; H322, 1 μM", "value": 0.8379}, {"measurement": "MTT assay reading, individual replicate", "setting": "H322; H322, 1 μM", "value": "0.841 and 0.799 and 0.822 and 0.932 and 0.793 and 0.709 and 0.969"}, {"measurement": "% control", "setting": "H1299; H1299, 0.01 μM", "value": 0.93, "unit": "%"}, {"measurement": "MTT assay reading, Average", "setting": "H1299; H1299, 0.01 μM", "value": 1.3179}, {"measurement": "MTT assay reading, individual replicate", "setting": "H1299; H1299, 0.01 μM", "value": "1.311 and 1.344 and 1.402 and 1.302 and 1.286 and 1.293 and 1.287"}, {"measurement": "% control", "setting": "H1299; H1299, 0.1 μM", "value": 0.87, "unit": "%"}, {"measurement": "MTT assay reading, Average", "setting": "H1299; H1299, 0.1 μM", "value": 1.2374}, {"measurement": "MTT assay reading, individual replicate", "setting": "H1299; H1299, 0.1 μM", "value": "1.228 and 1.331 and 1.318 and 1.141 and 1.196 and 1.153 and 1.295"}, {"measurement": "% control", "setting": "H1299; H1299, 0.5 μM", "value": 0.69, "unit": "%"}, {"measurement": "MTT assay reading, Average", "setting": "H1299; H1299, 0.5 μM", "value": 0.9707}, {"measurement": "MTT assay reading, individual replicate", "setting": "H1299; H1299, 0.5 μM", "value": "1.033 and 1.017 and 1.106 and 0.913 and 0.874 and 0.947 and 0.905"}, {"measurement": "% control", "setting": "H1299; H1299, 1 μM", "value": 0.60, "unit": "%"}, {"measurement": "MTT assay reading, Average", "setting": "H1299; H1299, 1 μM", "value": 0.8452}, {"measurement": "MTT assay reading, individual replicate", "setting": "H1299; H1299, 1 μM", "value": "0.769 and 0.838 and 0.938 and 0.813 and 0.837 and 0.876"}, {"measurement": "MTT assay reading, Average", "setting": "A549; A549, 0.01 μM", "value": 1.2597}, {"measurement": "MTT assay reading, individual replicate", "setting": "A549; A549, 0.01 μM", "value": "1.182 and 1.147 and 1.307 and 1.208 and 1.279 and 1.361 and 1.334"}, {"measurement": "MTT assay reading, Average", "setting": "A549; A549, 0.1 μM", "value": 1.1816}, {"measurement": "MTT assay reading, individual replicate", "setting": "A549; A549, 0.1 μM", "value": "1.073 and 1.17 and 1.208 and 1.308 and 1.211 and 1.152 and 1.149"}, {"measurement": "MTT assay reading, Average", "setting": "A549; A549, 0.5 μM", "value": 1.0421}, {"measurement": "MTT assay reading, individual replicate", "setting": "A549; A549, 0.5 μM", "value": "1.107 and 1.032 and 0.931 and 0.964 and 1.036 and 1.104 and 1.121"}, {"measurement": "MTT assay reading, Average", "setting": "A549; A549, 1 μM", "value": 0.9223}, {"measurement": "MTT assay reading, individual replicate", "setting": "A549; A549, 1 μM", "value": "0.97 and 0.971 and 1.014 and 0.89 and 0.862 and 0.886 and 0.863"}, {"measurement": "MTT assay reading, Average", "setting": "H596; H596, 0.01 μM", "value": 1.4338}, {"measurement": "MTT assay reading, individual replicate", "setting": "H596; H596, 0.01 μM", "value": "1.408 and 1.317 and 1.526 and 1.458 and 1.495 and 1.399"}, {"measurement": "MTT assay reading, Average", "setting": "H596; H596, 0.1 μM", "value": 1.2779}, {"measurement": "MTT assay reading, individual replicate", "setting": "H596; H596, 0.1 μM", "value": "1.356 and 1.281 and 1.153 and 1.273 and 1.246 and 1.358 and 1.278"}, {"measurement": "MTT assay reading, Average", "setting": "H596; H596, 0.5 μM", "value": 1.2116}, {"measurement": "MTT assay reading, individual replicate", "setting": "H596; H596, 0.5 μM", "value": "1.19 and 1.194 and 1.071 and 1.133 and 1.285 and 1.365 and 1.243"}, {"measurement": "MTT assay reading, Average", "setting": "H596; H596, 1 μM", "value": 1.0616}, {"measurement": "MTT assay reading, individual replicate", "setting": "H596; H596, 1 μM", "value": "1.202 and 1.183 and 1.019 and 1.159 and 1.07 and 0.899 (2×)"}, {"measurement": "% control", "setting": "H460; H460, 0.01 μM", "value": 0.86, "unit": "%"}, {"measurement": "MTT assay reading, Average", "setting": "H460; H460, 0.01 μM", "value": 1.4779}, {"measurement": "MTT assay reading, individual replicate", "setting": "H460; H460, 0.01 μM", "value": "1.531 and 1.338 and 1.635 and 1.354 and 1.477 and 1.476 and 1.534"}, {"measurement": "% control", "setting": "H460; H460, 0.1 μM", "value": 0.88, "unit": "%"}, {"measurement": "MTT assay reading, Average", "setting": "H460; H460, 0.1 μM", "value": 1.5079}, {"measurement": "MTT assay reading, individual replicate", "setting": "H460; H460, 0.1 μM", "value": "1.473 and 1.427 and 1.518 and 1.504 and 1.524 and 1.575 and 1.534"}, {"measurement": "% control", "setting": "H460; H460, 0.5 μM", "value": 0.78, "unit": "%"}, {"measurement": "MTT assay reading, Average", "setting": "H460; H460, 0.5 μM", "value": 1.3309}, {"measurement": "MTT assay reading, individual replicate", "setting": "H460; H460, 0.5 μM", "value": "1.297 and 1.323 and 1.388 and 1.304 and 1.362 and 1.335 and 1.307"}, {"measurement": "% control", "setting": "H460; H460, 1 μM", "value": 0.64, "unit": "%"}, {"measurement": "MTT assay reading, Average", "setting": "H460; H460, 1 μM", "value": 1.1053}, {"measurement": "MTT assay reading, individual replicate", "setting": "H460; H460, 1 μM", "value": "1.191 and 1.216 and 1.047 and 1.094 and 0.946 and 1.108 and 1.135"}, {"measurement": "MTT assay reading, Average", "setting": "H358; H358, 0.01 μM", "value": 0.7673}, {"measurement": "MTT assay reading, individual replicate", "setting": "H358; H358, 0.01 μM", "value": "0.79 and 0.678 and 0.647 and 0.812 and 0.791 and 0.864 and 0.789"}, {"measurement": "MTT assay reading, Average", "setting": "H358; H358, 0.1 μM", "value": 0.769}, {"measurement": "MTT assay reading, individual replicate", "setting": "H358; H358, 0.1 μM", "value": "0.726 and 0.676 and 0.824 and 0.846 and 0.782 and 0.658 and 0.871"}, {"measurement": "MTT assay reading, Average", "setting": "H358; H358, 0.5 μM", "value": 0.719}, {"measurement": "MTT assay reading, individual replicate", "setting": "H358; H358, 0.5 μM", "value": "0.684 and 0.6 and 0.66 and 0.739 and 0.819 and 0.753 and 0.778"}, {"measurement": "MTT assay reading, Average", "setting": "H358; H358, 1 μM", "value": 0.6534}, {"measurement": "MTT assay reading, individual replicate", "setting": "H358; H358, 1 μM", "value": "0.691 and 0.548 and 0.643 and 0.706 and 0.647 and 0.656 and 0.683"}]}]}
